Where two headings read alike, the source gives them in different places.
Assays:
Test in all cases: KinomeScan kinase panel, single concentration 10 µM
Type in all cases: binding
KinomeScan kinase panel [1] = molecular target: T1, KinomeScan kinase panel (Homo sapiens, UniProt Q8TD08); details: ERK8, 10 µM; read-out: score (%)
T1 construct: purchased DiscoveRx (KinomeScan)
T1 sequence (Q8TD08 1-544): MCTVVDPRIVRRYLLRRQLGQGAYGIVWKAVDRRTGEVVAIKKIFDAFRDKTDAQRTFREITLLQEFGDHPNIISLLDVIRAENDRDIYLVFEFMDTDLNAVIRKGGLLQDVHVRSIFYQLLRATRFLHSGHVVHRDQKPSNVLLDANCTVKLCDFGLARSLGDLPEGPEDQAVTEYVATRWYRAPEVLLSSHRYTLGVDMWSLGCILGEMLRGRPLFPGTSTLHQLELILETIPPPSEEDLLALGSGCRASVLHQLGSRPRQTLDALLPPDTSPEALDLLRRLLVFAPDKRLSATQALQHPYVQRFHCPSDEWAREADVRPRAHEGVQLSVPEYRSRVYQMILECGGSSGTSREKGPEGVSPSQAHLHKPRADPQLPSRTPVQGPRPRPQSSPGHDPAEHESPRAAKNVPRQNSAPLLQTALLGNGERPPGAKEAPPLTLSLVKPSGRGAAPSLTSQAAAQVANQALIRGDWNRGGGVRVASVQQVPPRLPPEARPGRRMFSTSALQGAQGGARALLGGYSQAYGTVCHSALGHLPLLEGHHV

KinomeScan kinase panel [2] = molecular target: T2, KinomeScan kinase panel (Homo sapiens, UniProt Q13470); details: read-out: score (%)
T2 construct: purchased DiscoveRx (KinomeScan)
T2 sequence (Q13470 1-666): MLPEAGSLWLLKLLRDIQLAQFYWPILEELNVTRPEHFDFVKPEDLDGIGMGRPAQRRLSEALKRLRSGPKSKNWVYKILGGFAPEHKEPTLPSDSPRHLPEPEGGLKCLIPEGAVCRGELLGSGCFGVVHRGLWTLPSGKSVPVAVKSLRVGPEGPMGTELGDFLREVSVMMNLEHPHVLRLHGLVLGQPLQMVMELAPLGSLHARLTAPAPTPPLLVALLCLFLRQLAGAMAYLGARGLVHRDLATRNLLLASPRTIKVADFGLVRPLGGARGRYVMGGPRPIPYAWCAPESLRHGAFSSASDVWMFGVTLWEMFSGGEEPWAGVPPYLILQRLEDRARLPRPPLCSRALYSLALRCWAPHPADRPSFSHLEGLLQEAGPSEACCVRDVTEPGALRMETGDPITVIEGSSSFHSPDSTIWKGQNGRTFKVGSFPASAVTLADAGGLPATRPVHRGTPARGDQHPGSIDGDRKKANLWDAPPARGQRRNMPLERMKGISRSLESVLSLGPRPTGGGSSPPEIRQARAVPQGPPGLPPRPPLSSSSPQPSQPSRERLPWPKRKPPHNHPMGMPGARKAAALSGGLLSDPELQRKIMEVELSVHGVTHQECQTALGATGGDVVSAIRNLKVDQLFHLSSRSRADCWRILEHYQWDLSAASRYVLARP

KinomeScan kinase panel [3] = molecular target: T3, KinomeScan kinase panel (Homo sapiens, UniProt Q7KZI7); details: MARK2, 10 µM; read-out: score (%)
T3 construct: purchased DiscoveRx (KinomeScan)

KinomeScan kinase panel [4] = molecular target: T4, KinomeScan kinase panel (Homo sapiens, UniProt P57078); details: read-out: score (%)
T4 construct: purchased DiscoveRx (KinomeScan)
T4 sequence (P57078 1-832): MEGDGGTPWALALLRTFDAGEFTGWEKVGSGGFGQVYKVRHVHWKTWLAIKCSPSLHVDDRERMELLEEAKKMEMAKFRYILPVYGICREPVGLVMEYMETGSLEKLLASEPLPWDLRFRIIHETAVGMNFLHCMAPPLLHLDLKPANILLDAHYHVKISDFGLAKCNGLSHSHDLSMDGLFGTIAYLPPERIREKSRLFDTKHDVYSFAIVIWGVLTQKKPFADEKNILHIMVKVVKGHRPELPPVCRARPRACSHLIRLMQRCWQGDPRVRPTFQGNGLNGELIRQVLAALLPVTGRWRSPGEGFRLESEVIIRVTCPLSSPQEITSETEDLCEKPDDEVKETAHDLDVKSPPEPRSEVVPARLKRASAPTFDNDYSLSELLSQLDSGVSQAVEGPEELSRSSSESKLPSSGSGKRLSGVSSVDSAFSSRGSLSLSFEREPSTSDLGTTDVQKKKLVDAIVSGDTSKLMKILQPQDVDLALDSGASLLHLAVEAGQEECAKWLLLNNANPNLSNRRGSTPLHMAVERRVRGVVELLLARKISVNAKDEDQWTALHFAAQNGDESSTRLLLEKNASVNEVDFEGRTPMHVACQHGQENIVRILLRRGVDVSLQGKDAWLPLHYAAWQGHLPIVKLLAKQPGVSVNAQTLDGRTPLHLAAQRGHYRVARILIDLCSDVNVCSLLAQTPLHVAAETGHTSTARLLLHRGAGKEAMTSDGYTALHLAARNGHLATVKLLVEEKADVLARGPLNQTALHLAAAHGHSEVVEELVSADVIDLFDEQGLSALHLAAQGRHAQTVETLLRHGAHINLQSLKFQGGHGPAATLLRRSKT

KinomeScan kinase panel [5] = molecular target: T5, KinomeScan kinase panel (Homo sapiens, UniProt Q8N4C8); details: MINK, 10 µM; read-out: score (%)
T5 construct: purchased DiscoveRx (KinomeScan)
T5 sequence (Q8N4C8 whole entry): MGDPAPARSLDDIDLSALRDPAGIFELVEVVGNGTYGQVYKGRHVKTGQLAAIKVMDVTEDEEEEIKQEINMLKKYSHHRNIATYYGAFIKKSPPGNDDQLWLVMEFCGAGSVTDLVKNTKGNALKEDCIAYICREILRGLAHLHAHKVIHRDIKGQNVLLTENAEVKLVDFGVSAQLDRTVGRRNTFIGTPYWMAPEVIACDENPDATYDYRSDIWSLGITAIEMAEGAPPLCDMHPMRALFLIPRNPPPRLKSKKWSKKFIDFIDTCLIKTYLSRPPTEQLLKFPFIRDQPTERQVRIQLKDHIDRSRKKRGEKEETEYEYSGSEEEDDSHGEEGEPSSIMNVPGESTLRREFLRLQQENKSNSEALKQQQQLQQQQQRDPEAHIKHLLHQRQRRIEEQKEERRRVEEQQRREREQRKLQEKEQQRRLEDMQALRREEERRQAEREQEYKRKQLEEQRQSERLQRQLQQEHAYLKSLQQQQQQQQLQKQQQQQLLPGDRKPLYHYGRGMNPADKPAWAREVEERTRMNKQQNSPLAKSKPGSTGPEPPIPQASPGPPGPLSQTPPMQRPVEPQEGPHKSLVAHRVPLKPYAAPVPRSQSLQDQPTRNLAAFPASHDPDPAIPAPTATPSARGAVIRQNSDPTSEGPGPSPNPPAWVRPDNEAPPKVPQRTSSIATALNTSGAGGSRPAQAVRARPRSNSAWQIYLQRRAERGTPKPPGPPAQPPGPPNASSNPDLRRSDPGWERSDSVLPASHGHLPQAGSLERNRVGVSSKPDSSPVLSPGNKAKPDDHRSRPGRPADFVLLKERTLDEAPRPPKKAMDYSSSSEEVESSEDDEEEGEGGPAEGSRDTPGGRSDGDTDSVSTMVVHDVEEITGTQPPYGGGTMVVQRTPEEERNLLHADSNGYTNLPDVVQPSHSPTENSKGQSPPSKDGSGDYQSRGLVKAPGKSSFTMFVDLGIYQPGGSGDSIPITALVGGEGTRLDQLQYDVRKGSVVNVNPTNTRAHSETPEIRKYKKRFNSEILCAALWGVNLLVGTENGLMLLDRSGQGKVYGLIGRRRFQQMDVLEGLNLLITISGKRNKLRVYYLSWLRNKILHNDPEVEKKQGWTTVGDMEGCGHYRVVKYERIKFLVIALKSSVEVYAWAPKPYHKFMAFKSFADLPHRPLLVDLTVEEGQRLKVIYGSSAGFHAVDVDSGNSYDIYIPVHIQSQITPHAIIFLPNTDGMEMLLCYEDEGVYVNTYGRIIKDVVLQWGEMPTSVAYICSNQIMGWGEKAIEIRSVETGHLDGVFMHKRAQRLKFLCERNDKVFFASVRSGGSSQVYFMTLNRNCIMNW

T3 sequence (Q7KZI7 whole entry): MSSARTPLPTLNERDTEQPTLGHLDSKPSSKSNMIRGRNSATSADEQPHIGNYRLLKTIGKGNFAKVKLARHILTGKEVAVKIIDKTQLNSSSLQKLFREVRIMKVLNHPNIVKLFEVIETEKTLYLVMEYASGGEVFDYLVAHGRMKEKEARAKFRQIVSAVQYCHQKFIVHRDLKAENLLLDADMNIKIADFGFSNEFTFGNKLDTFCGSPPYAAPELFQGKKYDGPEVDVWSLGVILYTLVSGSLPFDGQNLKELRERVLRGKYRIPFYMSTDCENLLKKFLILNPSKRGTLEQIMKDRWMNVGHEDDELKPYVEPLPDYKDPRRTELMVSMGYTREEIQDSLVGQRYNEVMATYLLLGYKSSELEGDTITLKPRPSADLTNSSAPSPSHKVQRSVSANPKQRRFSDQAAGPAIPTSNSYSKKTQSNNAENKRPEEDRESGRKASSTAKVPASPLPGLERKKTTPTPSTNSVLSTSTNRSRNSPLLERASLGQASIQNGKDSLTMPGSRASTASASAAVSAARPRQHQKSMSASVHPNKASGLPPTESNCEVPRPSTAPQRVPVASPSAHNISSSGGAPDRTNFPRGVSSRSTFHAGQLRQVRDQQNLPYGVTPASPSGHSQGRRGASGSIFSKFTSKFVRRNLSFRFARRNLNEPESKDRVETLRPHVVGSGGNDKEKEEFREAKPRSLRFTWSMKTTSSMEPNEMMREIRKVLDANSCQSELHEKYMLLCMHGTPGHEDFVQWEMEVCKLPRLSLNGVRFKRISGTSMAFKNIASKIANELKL

Structure (SMILES)	remaining binding at 10 µM (KinomeScan kinase panel [1])	remaining binding at 10 µM (KinomeScan kinase panel [2]; kinase TNK1, 10 µM)	remaining binding at 10 µM (KinomeScan kinase panel [3])	remaining binding at 10 µM (KinomeScan kinase panel [4]; RIPK4, 10 µM)	remaining binding at 10 µM (KinomeScan kinase panel [5])	remaining binding at 10 µM (KinomeScan kinase panel [4]; kinase RIPK4, 10 µM)	remaining binding at 10 µM (KinomeScan kinase panel [2]; TNK1, 10 µM)
CCN1CCN(Cc2ccc(NC(=O)c3ccc(C)c(NC(=O)c4cncc(-c5cccs5)c4)c3)cc2C(F)(F)F)CC1 [ALW-II-41-27]	> 30%	7.7%	> 30%	> 30%	0.65%		
CCN1CCN(Cc2ccc(NC(=O)c3ccc(C)c(C#Cc4cccnc4)c3)cc2C(F)(F)F)CC1 [XMD15-44]	1.8%	0%	> 30%		2.5%	48%	
CCN1CCN(Cc2ccc(NC(=O)c3ccc(C)c(/C=C/c4cnc5[nH]ccc5c4Cl)c3)cc2C(F)(F)F)CC1 [HG-6-63-01, (E)-3-(2-(4-chloro-1H-pyrrolo[2,3-b]pyridin-5-yl)vinyl)-N-(4-((4-ethylpiperazin-1-yl)methyl)-3-(trifluoromethyl)phenyl)-4-methylbenzamide]	> 30%		> 30%	> 30%	4.2%		0.8%

From article PMC4457528, “Identification of Novel Small Molecule Inhibitors of Oncogenic RET Kinase” (PLoS ONE, 2015)
